Two compounds from patent US11034678B2, “Diacylglycerol acyl transferase 2 inhibitors” (Pfizer Inc., priority 2016, dated 2021) can be followed below.

This data set in a line: Metabolic clearance in HLM (hepatic clearance profile, Clint, app). The class given is in vitro ADME, human.

With `CCOc1cccnc1Oc1cncc(-c2ncc(C(=O)NC(C)(C)CO)cn2)c1` [Example 5, 2-(5-((3-Ethoxypyridin-2-yl)oxy)pyridin-3-yl)-N-(1-hydroxy-2-methylpropan-2-yl)pyrimidine-5-carboxamide], the “CIint, app in HLM” value stood at 18 µL/min/mg.

For the compound `CCOc1ccccc1O[C@@H]1CCCN(c2ncc(C(=O)NC(C)(C)CO)cn2)C1` [WO2015140658 Example 19.21], the “CIint, app in HLM” value amounted to 121 µL/min/mg.
